# According to ChEMBL document CHEMBL1125860 (J Med Chem, 1991):
# The source made the active and inactive calls. The calls are words filed in the database; no cut-off is given here.
# Tests used:
# [1] = biological target: Aldo-keto reductase family 1 member B1 (Bos taurus) (UniProt P16116); test: In vitro % decrease of aldose reductase measured in isolated partially purified bovine lens preparations at 10e-7 M concentration
# Rattus norvegicus [2] = test: In vivo inhibition of galactitol accumulation in diaphragm of rat at 50 mg/kg/day; Not significant; format: functional, organism-based
# Rattus norvegicus [3] = test: In vivo inhibition of galactitol accumulation in sciatic nerves of rat at 50 mg/kg/day; Not significant; format: functional, organism-based; details: Sciatic nerve
# Rattus norvegicus [4] = species on record: Rattus norvegicus; test: In vitro inhibition of sorbitol accumulation was measured in rat sciatic nerves incubated in the presence of 50 mM glucose at 10e-5 M concentration; format: functional, Sciatic nerve
# Rattus norvegicus [5] = species on record: Rattus norvegicus; test: In vitro inhibition of sorbitol accumulation was measured in rat sciatic nerves incubated in the presence of 50 mM glucose at 10e-6 M concentration; format: functional, Sciatic nerve
# Rattus norvegicus [6] = test: In vivo inhibition of galactitol accumulation in diaphragm of rat at 48 mg/kg/day; format: functional
# Rattus norvegicus [7] = test: In vivo inhibition of galactitol accumulation in sciatic nerves of rat at 48 mg/kg/day; format: functional; details: Sciatic nerve
# [8] = biological target: Aldo-keto reductase family 1 member B1 (Bos taurus) (UniProt P16116); test: In vitro % decrease of aldose reductase was measured in isolated partially purified bovine lens preparations at 10e-7 M concentration; Not active
# Rattus norvegicus [9] = test: In vivo inhibition of galactitol accumulation in diaphragm of rat at 48 mg/kg/day; Not significant; format: functional, organism-based
# Rattus norvegicus [10] = test: In vivo inhibition of galactitol accumulation in sciatic nerves of rat at 48 mg/kg/day; Not significant; format: functional, organism-based; details: Sciatic nerve
# Rattus norvegicus [11] = test: In vivo inhibition of galactitol accumulation in diaphragm of rat at 26 mg/kg/day; format: functional
# Rattus norvegicus [12] = test: In vivo inhibition of galactitol accumulation in sciatic nerves of rat at 26 mg/kg/day; Not significant; format: functional, organism-based; details: Sciatic nerve
# Rattus norvegicus [13] = test: In vivo inhibition of galactitol accumulation in diaphragm of rat at 27 mg/kg/day; format: functional
# Rattus norvegicus [14] = test: In vivo inhibition of galactitol accumulation in sciatic nerves of rat at 27 mg/kg/day; Not significant; format: functional, organism-based; details: Sciatic nerve
# Rattus norvegicus [15] = test: In vivo inhibition of galactitol accumulation in diaphragm of rat at 50 mg/kg/day; format: functional
# Rattus norvegicus [16] = test: In vivo inhibition of galactitol accumulation in sciatic nerves of rat at 50 mg/kg/day; format: functional; details: Sciatic nerve
# Rattus norvegicus [17] = test: In vivo inhibition of galactitol accumulation in sciatic nerves of rat at 24 mg/kg/day; Not significant; format: functional, organism-based; details: Sciatic nerve
# Rattus norvegicus [18] = test: In vivo inhibition of galactitol accumulation in diaphragm of rat at 24 mg/kg/day; format: functional
# Rattus norvegicus [19] = test: In vivo inhibition of galactitol accumulation in sciatic nerves of rat at 26 mg/kg/day; format: functional; details: Sciatic nerve
# Rattus norvegicus [20] = test: In vivo inhibition of galactitol accumulation in sciatic nerves of rat at 2 mg/kg/day; Not significant; format: functional, organism-based; details: Sciatic nerve
# Rattus norvegicus [21] = test: In vivo inhibition of galactitol accumulation in diaphragm of rat at 5 mg/kg/day; format: functional
# Rattus norvegicus [22] = test: In vivo inhibition of galactitol accumulation in sciatic nerves of rat at 10 mg/kg/day; format: functional; details: Sciatic nerve
# Rattus norvegicus [23] = test: In vivo inhibition of galactitol accumulation in sciatic nerves of rat at 5 mg/kg/day; format: functional; details: Sciatic nerve
# Rattus norvegicus [24] = test: In vivo inhibition of galactitol accumulation in diaphragm of rat at 49 mg/kg/day; format: functional
# Rattus norvegicus [25] = test: In vivo inhibition of galactitol accumulation in sciatic nerves of rat at 49 mg/kg/day; format: functional; details: Sciatic nerve
# Rattus norvegicus [26] = test: In vivo inhibition of galactitol accumulation in diaphragm of rat at 10 mg/kg/day; format: functional
# Rattus norvegicus [27] = test: In vivo inhibition of galactitol accumulation in sciatic nerves of rat at 24 mg/kg/day; format: functional; details: Sciatic nerve
# [28] = biological target: Aldo-keto reductase family 1 member B1 (Bos taurus) (UniProt P16116); test: In vitro % decrease of […] reductase was measured in isolated partially purified bovine lens preparations at 10e-7 M concentration
# [29] = biological target: Aldo-keto reductase family 1 member B1 (Bos taurus) (UniProt P16116); test: In vitro% decrease of aldose reductase was measured in isolated partially purified bovine lens preparations at 10e-7 M concentration
# Rattus norvegicus [30] = test: In vivo inhibition of galactitol accumulation in sciatic nerves of rat at 52 mg/kg/day; Not significant; format: functional, organism-based; details: Sciatic nerve
# Rattus norvegicus [31] = test: In vivo inhibition of galactitol accumulation in diaphragm of rat at 52 mg/kg/day; Not significant; format: functional, organism-based
# Rattus norvegicus [32] = test: In vivo inhibition of galactitol accumulation in diaphragm of rat at 53 mg/kg/day; format: functional
# Rattus norvegicus [33] = test: In vivo inhibition of galactitol accumulation in sciatic nerves of rat at 53 mg/kg/day; Not significant; format: functional, organism-based; details: Sciatic nerve
# Rattus norvegicus [34] = test: In vivo inhibition of galactitol accumulation in diaphragm of rat at 47 mg/kg/day; Not significant; format: functional, organism-based
# Rattus norvegicus [35] = test: In vivo inhibition of galactitol accumulation in sciatic nerves of rat at 47 mg/kg/day; Not significant; format: functional, organism-based; details: Sciatic nerve
# Rattus norvegicus [36] = test: In vivo inhibition of galactitol accumulation in sciatic nerves of rat at 25 mg/kg/day; format: functional; details: Sciatic nerve
# Rattus norvegicus [37] = test: In vivo inhibition of galactitol accumulation in diaphragm of rat at 25 mg/kg/day; format: functional
smiles,measurement,setting,value
COc1ccc2c(C(=O)N(C)CC(=O)O)c(SC)ccc2c1C(F)(F)F,inhibition,[1],69%
same,inhibition,Rattus norvegicus [2],inactive
same,inhibition,Rattus norvegicus [3],inactive
same,Inhibition,Rattus norvegicus [4],60%
same,Inhibition,Rattus norvegicus [5],41%
COc1ccc2c(C(=O)N(C)CC(=O)O)c(Oc3ccccc3)ccc2c1C(F)(F)F,inhibition,[1],83%
same,inhibition in vivo at 48 mg/kg/day,Rattus norvegicus [6],67%
same,inhibition in vivo at 48 mg/kg/day,Rattus norvegicus [7],32%
same,Inhibition,Rattus norvegicus [4],78%
same,Inhibition,Rattus norvegicus [5],45%
COc1ccc2c(C(=O)N(C)CC(=O)O)c(Cc3ccccc3)ccc2c1C(F)(F)F,inhibition,[1],52%
same,inhibition,Rattus norvegicus [2],inactive
same,inhibition,Rattus norvegicus [3],inactive
COc1ccc2c(C(=O)N(C)CC(N)=O)c(C(C)(C)C)ccc2c1C(F)(F)F,inhibition,[8],inactive
same,inhibition,Rattus norvegicus [9],inactive
same,inhibition,Rattus norvegicus [10],inactive
COc1ccc2c(C(=S)N(C)CC(=O)O)c(OCc3ccccc3)ccc2c1C(F)(F)F,inhibition,[1],84%
same,inhibition in vivo at 26 mg/kg/day,Rattus norvegicus [11],80%
same,inhibition,Rattus norvegicus [12],inactive
CCOC(=O)N(CC(=O)O)C(=O)c1c(OCC(F)(F)F)ccc2c(C(F)(F)F)c(OC)ccc12,inhibition,[1],78%
same,inhibition in vivo at 27 mg/kg/day,Rattus norvegicus [13],39%
same,inhibition,Rattus norvegicus [14],inactive
same,Inhibition,Rattus norvegicus [4],72%
same,Inhibition,Rattus norvegicus [5],42%
CCCOc1ccc2c(C(F)(F)F)c(OC)ccc2c1C(=O)N(C)CC(=O)O,inhibition,[1],46%
same,inhibition in vivo at 50 mg/kg/day,Rattus norvegicus [15],57%
same,inhibition in vivo at 50 mg/kg/day,Rattus norvegicus [16],48%
COc1ccc2c(C(=S)N(C)CC(=O)O)c(Oc3ccccc3)ccc2c1C(F)(F)F,inhibition,[1],89%
same,inhibition,Rattus norvegicus [17],inactive
same,inhibition in vivo at 24 mg/kg/day,Rattus norvegicus [18],83%
COc1ccc2c(C(=S)N(C)CC(=O)O)c(OCC(F)(F)F)ccc2c1C(F)(F)F,inhibition,[1],86%
same,inhibition in vivo at 26 mg/kg/day,Rattus norvegicus [11],88%
same,inhibition in vivo at 26 mg/kg/day,Rattus norvegicus [19],33%
COc1ccc2c(C(=S)N(C)CC(N)=O)c(F)ccc2c1C(F)(F)F,inhibition,Rattus norvegicus [20],inactive
same,inhibition in vivo at 5 mg/kg/day,Rattus norvegicus [21],80%
same,inhibition in vivo at 10 mg/kg/day,Rattus norvegicus [22],54%
same,inhibition in vivo at 5 mg/kg/day,Rattus norvegicus [23],33%
COc1ccc2c(C(=O)N(C)CC(=O)O)cc(-c3ccccc3)cc2c1C(F)(F)F,inhibition,[1],63%
same,inhibition,Rattus norvegicus [2],inactive
same,inhibition,Rattus norvegicus [3],inactive
same,Inhibition,Rattus norvegicus [4],77%
same,Inhibition,Rattus norvegicus [5],32%
CCOc1ccc2c(C(F)(F)F)c(OC)ccc2c1C(=O)N(C)CC(=O)O,inhibition,[1],65%
same,inhibition in vivo at 49 mg/kg/day,Rattus norvegicus [24],57%
same,inhibition in vivo at 49 mg/kg/day,Rattus norvegicus [25],45%
same,Inhibition,Rattus norvegicus [4],55%
same,Inhibition,Rattus norvegicus [5],30%
COc1ccc2c(C(=O)N(C)CC(=O)O)c(C(F)(F)F)ccc2c1C(F)(F)F,inhibition,[1],32%
same,inhibition in vivo at 48 mg/kg/day,Rattus norvegicus [6],52%
same,inhibition,Rattus norvegicus [10],inactive
same,Inhibition,Rattus norvegicus [4],65%
same,Inhibition,Rattus norvegicus [5],35%
CCOC(=O)N(CC(=O)O)C(=O)c1c(Cl)ccc2c(C(F)(F)F)c(OC)ccc12,inhibition,[1],79%
same,inhibition in vivo at 50 mg/kg/day,Rattus norvegicus [15],47%
same,inhibition,Rattus norvegicus [3],inactive
same,Inhibition,Rattus norvegicus [4],79%
same,Inhibition,Rattus norvegicus [5],54%
COC(=O)N(CC(=O)O)C(=O)c1c(Cl)ccc2c(C(F)(F)F)c(OC)ccc12,inhibition,[1],85%
same,inhibition in vivo at 26 mg/kg/day,Rattus norvegicus [11],68%
same,Inhibition,Rattus norvegicus [4],75%
same,Inhibition,Rattus norvegicus [5],49%
COc1ccc2c(C(=S)N(C)CC(=O)O)cc(Br)cc2c1Br,inhibition,[1],94%
same,inhibition in vivo at 26 mg/kg/day,Rattus norvegicus [11],86%
same,inhibition,Rattus norvegicus [12],inactive
CCOC(=O)NC(=O)CN(C)C(=O)c1c(F)ccc2c(C(F)(F)F)c(OC)ccc12,inhibition,[8],inactive
same,inhibition in vivo at 5 mg/kg/day,Rattus norvegicus [21],22%
same,inhibition in vivo at 10 mg/kg/day,Rattus norvegicus [22],59%
same,inhibition in vivo at 5 mg/kg/day,Rattus norvegicus [23],36%
same,inhibition in vivo at 10 mg/kg/day,Rattus norvegicus [26],41%
COc1ccc2c(C(=S)N(C)CC(=O)O)cc(F)cc2c1Br,inhibition,[1],86%
same,inhibition in vivo at 26 mg/kg/day,Rattus norvegicus [11],86%
same,inhibition,Rattus norvegicus [12],inactive
COc1ccc2c(C(=O)N(C)CC(N)=O)c(Cl)ccc2c1C(F)(F)F,inhibition,[8],inactive
same,inhibition in vivo at 24 mg/kg/day,Rattus norvegicus [27],62%
same,inhibition in vivo at 24 mg/kg/day,Rattus norvegicus [18],53%
COC(=O)N(CC(=O)O)C(=O)c1cccc2c(C(F)(F)F)c(OC)ccc12,inhibition in vivo at 48 mg/kg/day,Rattus norvegicus [6],54%
same,inhibition in vivo at 48 mg/kg/day,Rattus norvegicus [7],70%
same,inhibition in vivo at 10 mg/kg/day,Rattus norvegicus [22],86%
same,inhibition in vivo at 10 mg/kg/day,Rattus norvegicus [26],76%
same,Inhibition,Rattus norvegicus [4],58%
COC(=O)N(CC(=O)O)C(=O)c1c(OC)ccc2c(C(F)(F)F)c(OC)ccc12,inhibition,[1],83%
same,inhibition in vivo at 49 mg/kg/day,Rattus norvegicus [24],33%
same,inhibition in vivo at 49 mg/kg/day,Rattus norvegicus [25],36%
COc1ccc2c(C(=S)N(C)CC(=O)O)c(C)ccc2c1C(F)(F)F,inhibition,[28],70%
same,inhibition in vivo at 26 mg/kg/day,Rattus norvegicus [11],91%
same,inhibition,Rattus norvegicus [12],inactive
COc1ccc2c(C(=O)N(C)CC(=O)O)cc(Cc3ccc(Br)cc3F)cc2c1Br,inhibition,[29],66%
same,inhibition,Rattus norvegicus [30],inactive
same,Inhibition,Rattus norvegicus [4],92%
same,Inhibition,Rattus norvegicus [5],63%
same,inhibition,Rattus norvegicus [31],inactive
CCCCc1ccc2c(C(F)(F)F)c(OC)ccc2c1C(=O)N(C)CC(N)=O,inhibition,[8],inactive
same,inhibition,Rattus norvegicus [9],inactive
same,inhibition in vivo at 48 mg/kg/day,Rattus norvegicus [7],30%
COc1ccc2c(C(=S)N(C)CC(=O)O)cc(-c3ccccc3)cc2c1C(F)(F)F,inhibition,[1],93%
same,inhibition in vivo at 53 mg/kg/day,Rattus norvegicus [32],82%
same,inhibition,Rattus norvegicus [33],inactive
same,Inhibition,Rattus norvegicus [4],87%
same,Inhibition,Rattus norvegicus [5],36%
COc1ccc2c(C(=S)N(C)CC(=O)O)c(Cl)ccc2c1C(F)(F)F,inhibition,[1],81%
same,inhibition,Rattus norvegicus [17],inactive
same,inhibition in vivo at 24 mg/kg/day,Rattus norvegicus [18],90%
CCOC(=O)N(CC(=O)O)C(=O)c1cc(Br)cc2c(Br)c(OC)ccc12,inhibition,[1],84%
same,inhibition,Rattus norvegicus [34],inactive
same,inhibition,Rattus norvegicus [35],inactive
COc1ccc2c(C(F)(F)F)c(OC)ccc2c1C(=S)N(C)CC(=O)O,inhibition,[1],91%
same,inhibition in vivo at 26 mg/kg/day,Rattus norvegicus [11],71%
same,inhibition,Rattus norvegicus [12],inactive
COc1ccc2c(C(=O)N(C)CC(=O)O)ccc(F)c2c1C(F)(F)F,inhibition,[1],64%
same,inhibition in vivo at 26 mg/kg/day,Rattus norvegicus [11],15%
same,inhibition,Rattus norvegicus [12],inactive
COC(=O)N(CC(=O)O)C(=O)c1c(OCC(F)(F)F)ccc2c(C(F)(F)F)c(OC)ccc12,inhibition,[1],83%
same,inhibition in vivo at 27 mg/kg/day,Rattus norvegicus [13],49%
same,inhibition,Rattus norvegicus [14],inactive
same,Inhibition,Rattus norvegicus [4],64%
same,Inhibition,Rattus norvegicus [5],36%
COc1ccc2c(C(=S)N(C)CC(=O)O)ccc(F)c2c1C(F)(F)F,inhibition,[1],84%
same,inhibition in vivo at 25 mg/kg/day,Rattus norvegicus [36],94%
same,inhibition in vivo at 25 mg/kg/day,Rattus norvegicus [37],90%
